# Measurements taken from patent US5708008A, “5-Substituted-3-(1,2,3,6-tetrahydropyridin-4-yl)-and 3-(piperidin-4-yl)-1H-indoles: new 5-HT1F agonists” (Eli Lilly and Company, priority 1996, dated 1998).
# Read-outs that look alike come from different tables or passages of the source.
# Legend:
# [1] = test system: protein extravasation induced by stimulation of the trigeminal ganglion; assay: Inhibition of neuronal protein extravasation in dura after electrical stimulation of trigeminal ganglion; assay type: in vivo, rat or guinea pig
# [2] = test system: cephalic vascular smooth muscle; settings: literature; cited from earlier work
# migraine = settings: literature; cited from earlier work
# [3] = literature; cited from earlier work
# [4] = cited from earlier work
# [5] = Rattus norvegicus, iv, read-out: Inhibition of Protein Extravasation, i.v. ID50
smiles,measurement,setting,value
Oc1ccc2[nH]cc(C3CCNCC3)c2c1 [Compound III],ED50,[1]; [5],8.9e-06 µmol/kg
Cn1cc(CCN2CCC(c3c[nH]c4ccc(F)cc34)CC2)cn1 [Compound II],ED50,"[1]; Rattus norvegicus, iv; read-out: Inhibition of Protein Extravasation, i.v. ID50",8.6e-07 µmol/kg
CCN(CC)C1CCc2cccc(Cl)c2C1 (centres unmarked) [Compound IV],ED50,[1]; [5],0.00012 µmol/kg
CNS(=O)(=O)Cc1ccc2[nH]cc(CCN(C)C)c2c1 [Compound I],ED50,[1]; [5],2.6e-05 µmol/kg
same,contraction of cephalic vascular smooth muscle,[2],contract cephalic vascular smooth muscle
same,efficacy in treatment of migraine,migraine,effective in the treatment of migraine
same,crossing of the blood-brain barrier,[3],does not cross the blood-brain barrier
same,side effects,[4]; due to affinity for a number of serotonin receptor subtypes,"undesirable side effects, particularly vasoconstriction"
same,bioavailability,[4]; in vivo,low bioavailability
same,duration of action,[4]; in vivo,relatively short duration of action
CN(C)C1CCc2[nH]c3ccc(O)cc3c2C1 (centres unmarked) [Compound V],ED50,[1]; [5],8.7e-06 µmol/kg
